pIC50: −log10 of the molar value.
Biological target: T1, human glucagon receptor (Homo sapiens, UniProt P47871)
T1 construct: expressed in transfected cells; host or cells: BHK (baby hamster kidney) cells
Assay: Glucagon Binding Assay (III)
Conditions: BHK cell membranes, WGA SPA beads, 125I-glucagon; read-out: Glu Bd Assay (III) IC50
Procedure, shortened: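 Non-specific binding was set with 500 nM glucagon in this SPA-type binding assay using WGA beads. The receptor source was a membrane preparation, kept on ice or at 4 °C, from BHK cells transfected with the human receptor. Scintillation counts were taken after 4 hours of shaking and 8–48 hours of settling.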

T1 sequence (P47871 26-477): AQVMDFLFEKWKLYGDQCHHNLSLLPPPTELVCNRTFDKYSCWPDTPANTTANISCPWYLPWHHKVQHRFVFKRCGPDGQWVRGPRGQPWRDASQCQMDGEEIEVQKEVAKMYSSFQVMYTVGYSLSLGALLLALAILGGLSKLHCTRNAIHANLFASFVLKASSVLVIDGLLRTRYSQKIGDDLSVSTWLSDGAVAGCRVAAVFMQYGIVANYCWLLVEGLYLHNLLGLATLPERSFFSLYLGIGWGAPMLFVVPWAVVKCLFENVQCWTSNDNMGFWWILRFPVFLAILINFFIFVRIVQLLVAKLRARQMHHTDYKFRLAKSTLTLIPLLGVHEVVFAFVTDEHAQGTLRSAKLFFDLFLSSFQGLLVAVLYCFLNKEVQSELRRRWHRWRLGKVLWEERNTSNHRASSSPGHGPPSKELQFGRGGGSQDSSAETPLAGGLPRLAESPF

Row | SMILES | pIC50
1 | O=C(O)CCNC(=O)c1ccc(CN(Cc2ccc(C(F)(F)F)cc2)Cc2ccc(C(F)(F)F)cc2)cc1 [Example 384, 3-(4-{[Bis(4-trifluoromethylbenzyl)amino]methyl}benzoylamino)propionic acid] | 6.49
2 | CCN(c1ccccc1)S(=O)(=O)c1cc(NC(=O)N(Cc2ccc(C(=O)NCCC(=O)O)cc2)[C@H]2CC[C@H](C3CCCCC3)CC2)ccc1C [Example 390, 3-(4-{1-(trans-4-Cyclohexylcyclohexyl)-3-[3-(N-ethyl-N-phenylsulfamoyl)-4-methylphenyl]ureidomethyl}benzoylamino)propionic acid] | 8.22
3 | O=C(O)CCNC(=O)c1ccc(CN(C(=O)NCc2ccccc2-c2ccccc2)[C@H]2CC[C@H](C3CCCCC3)CC2)cc1 [Example 391] | 7.68
4 | COC(=O)c1cc(-c2cccc(NC(=O)N(Cc3ccc(C(=O)NCCC(=O)O)cc3)[C@H]3CC[C@H](C4CCCCC4)CC3)c2)oc1C [Example 392, 5-(3-{3-(trans-4-Cyclohexylcyclohexyl)-3-[4-(2-carboxyethylcarbamoyl)benzyl]ureido}phenyl)-2-methylfuran-3-carboxylic acid methyl ester] | 7.44
5 | O=C(O)CCNC(=O)c1ccc(CN(C(=O)Nc2cc(Br)cc(C(F)(F)F)c2)[C@H]2CC[C@H](C3CCCCC3)CC2)cc1 [Example 393, 3-{4-[1-(trans-4-Cyclohexylcyclohexyl)-3-(3-bromo-5-trifluoromethylphenyl)ureidomethyl]benzoylamino}propionic acid] | 7.77
6 | O=C(O)CCNC(=O)c1ccc(CN(C(=O)Nc2cc(Br)cc(C(F)(F)F)c2)c2ccc(C3CCCCC3)cc2)cc1 [Example 394, 3-{4-[1-(4-Cyclohexylphenyl)-3-(3-bromo-5-trifluoromethylphenyl)ureidomethyl]benzoylamino}propionic acid] | 7.77
7 | O=C(Nc1nn[nH]n1)c1ccc(CN(C(=O)NCc2cc(Cl)cc(Cl)c2)c2ccc(C3CCCCC3)cc2)cc1 [Example 397, 4-[1-(4-Cyclohexylphenyl)-3-(3,5-dichlorobenzyl)ureidomethyl]-N-(2H-tetrazol-5-yl)benzamide] | 6.92
8 | CC(C)(C)C1CCC(N(Cc2ccc(C(=O)NCCC(=O)O)cc2)C(=O)Oc2ccc(-c3ccccc3)cc2)CC1 (stereo not drawn) [Example 398, 3-(4-{[(Biphenyl-4-yloxycarbonyl)-(4-tert-butylcyclohexyl)amino]methyl}benzoylamino)propionic acid] | 6.87
9 | CC(C)(C)C1CCC(N(Cc2ccc(C(=O)NCCC(=O)O)cc2)C(=O)Oc2ccc([N+](=O)[O-])cc2)CC1 (stereo not drawn) [Example 399, 3-(4-{[(4-tert-Butylcyclohexyl)-(4-nitrophenoxycarbonyl)amino]methyl}benzoylamino)propionic acid] | 6.92
10 | O=C(O)CCNC(=O)c1ccc(CN(C(=O)Oc2cc(Cl)cc(Cl)c2)c2ccc(C3CCCCC3)cc2)cc1 [Example 400, 3-(4-{[(4-Cyclohexylphenyl)-(3,5-dichlorophenoxycarbonyl)amino]methyl}benzoylamino)propionic acid] | 6.27
11 | CC(C)(C)C1CCC(N(Cc2ccc(C(=O)NCCC(=O)O)cc2)C(=O)Oc2ccc(Cl)c(Cl)c2)CC1 (stereo not drawn) [Example 401, 3-(4-{[(4-tert-Butylcyclohexyl)-(3,4-dichlorophenoxycarbonyl)amino]methyl}benzoylamino)propionic acid] | 6.75
12 | CC(C)(C)C1CCC(N(Cc2ccc(C(=O)NCCC(=O)O)cc2)C(=O)Oc2cc(Cl)cc(Cl)c2)CC1 (stereo not drawn) [Example 402, 3-(4-{[(4-tert-Butylcyclohexyl)-(3,5-dichlorophenoxycarbonyl)amino]methyl}benzoylamino)propionic acid] | 6.75
13 | CC(C)(C)C1CCC(N(Cc2ccc(C(=O)NCCC(=O)O)cc2)C(=O)Oc2cc(C(F)(F)F)cc(C(F)(F)F)c2)CC1 (stereo not drawn) [Example 403, 3-(4-{[(3,5-Bis(trifluoromethyl)phenoxycarbonyl)-(4-tert-butylcyclohexyl)amino]methyl}benzoylamino)propionic acid] | 6.47
14 | CC(C)(C)C1CCC(N(Cc2ccc(C(=O)NCCC(=O)O)cc2)C(=O)Oc2ccc(Br)cc2Br)CC1 (stereo not drawn) [Example 404, 3-(4-{[(4-tert-Butylcyclohexyl)-(2,4-dibromophenoxycarbonyl)amino]methyl}benzoylamino)propionic acid] | 6.46
15 | CC(C)(C)C1CCC(N(Cc2ccc(C(=O)NCCC(=O)O)cc2)C(=O)Oc2ccc(OC(F)(F)F)cc2)CC1 (stereo not drawn) [Example 405, 3-(4-{[(4-tert-Butylcyclohexyl)-(4-trifluoromethoxyphenoxecarbonyl)amino]methyl}benzoylamino)propionic acid] | 6.65
16 | CC(C)(C)c1ccc(N(Cc2ccc(C(=O)Nc3nn[nH]n3)cc2)C(=O)Oc2cc(C(F)(F)F)cc(C(F)(F)F)c2)cc1 [Example 406] | 6.12
17 | CC(C)(C)c1ccc(N(Cc2ccc(C(=O)NCCC(=O)O)cc2)C(=O)Oc2ccc(Cl)cc2Cl)cc1 [Example 407, 3-(4-{[(4-tert-Butylphenyl)-(2,4-dichlorophenoxycarbonyl)amino]methyl}benzoylamino)propionic acid] | 6.12
18 | CC(C)(C)C1CCC(N(Cc2ccc(C(=O)NCCC(=O)O)cc2)C(=O)Oc2cccc(OC(F)(F)F)c2)CC1 (stereo not drawn) [Example 408, 3-(4-{[(4-tert-Butylcyclohexyl)-(3-trifluoromethoxyphenoxycarbonyl)amino]methyl}benzoylamino)propionic acid] | 6.24
19 | CC(C)(C)c1ccc(N(Cc2ccc(C(=O)NCCC(=O)O)cc2)C(=O)Oc2cc(Cl)cc(Cl)c2)cc1 [Example 409, 3-(4-{[(4-tert-Butylphenyl)-(3,5-dichlorophenoxycarbonyl)amino]methyl}benzoylamino)propionic acid] | 6.28
20 | CC(C)(C)c1ccc(N(Cc2ccc(C(=O)NCCC(=O)O)cc2)C(=O)Oc2cc(C(F)(F)F)cc(C(F)(F)F)c2)cc1 [Example 410, 3-(4-{[(3,5-Bis(trifluoromethyl)phenoxycarbonyl)-(4-tert-butylphenyl)amino]methyl}benzoylamino)propionic acid] | 6.41
21 | CC(C)(C)c1ccc(N(Cc2ccc(C(=O)NCCC(=O)O)cc2)C(=O)Oc2ccc(OC(F)(F)F)cc2)cc1 [Example 411, 3-(4-{[(4-tert-Butylphenyl)-(4-trifluoromethoxyphenoxycarbonyl)amino]methyl}benzoylamino)propionic acid] | 6.15
22 | CC(C)(C)c1ccc(N(Cc2ccc(C(=O)NCCC(=O)O)cc2)C(=O)Oc2cccc(OC(F)(F)F)c2)cc1 [Example 412, 3-(4-{[(4-tert-Butylphenyl)-(3-trifluoromethoxyphenoxycarbonyl)amino]methyl}benzoylamino)propionic acid] | 6.22
23 | O=C(O)CCNC(=O)c1ccc(CN(C(=O)Oc2ccc([N+](=O)[O-])cc2)c2ccc(C3CCCCC3)cc2)cc1 [Example 413, 3-(4-{[(4-Cyclohexylphenyl)-(4-nitrophenoxycarbonyl)amino]methyl}benzoylamino)propionic acid] | 5.92
24 | O=C(O)CCNC(=O)c1ccc(CN(C(=O)Oc2cccc([N+](=O)[O-])c2)c2ccc(C3CCCCC3)cc2)cc1 [Example 414, 3-(4-{[(4-Cyclohexylphenyl)-(3-nitrophenoxycarbonyl)amino]methyl}benzoylamino)propionic acid] | 6.03
